Structures are written as SMILES.

As a reminder, the melting point is the temperature of the solid-liquid transition.

Turning to `Cc1nc(N2CCN(CCCC(F)(F)F)C2=O)sc1C(=O)NCc1cccnc1` [Example 12.3, 4-methyl-2-(2-oxo-3-(4,4,4-trifluorobutyl)imidazolidin-1-yl)-N-(pyridin-3-ylmethyl)thiazole-5-carboxamide], the melting point was 167 to 169 °C.

The molecule `Cc1cncc(CNC(=O)c2sc(N3CCN(CCCC(F)(F)F)C3=O)nc2C)n1` [Example 12.6, 4-methyl-N-((6-methylpyrazin-2-yl)methyl)-2-(2-oxo-3-(4,4,4-trifluorobutyl)imidazolidin-1-yl)thiazole-5-carboxamide] had a melting point of 123 °C.

The molecule `Cc1nc(N2CCN(CCCC(F)(F)F)C2=O)sc1C(=O)NCc1ccncc1` [Example 12.7, 4-methyl-2-(2-oxo-3-(4,4,4-trifluorobutyl)imidazolidin-1-yl)-N-(pyridin-4-ylmethyl)thiazole-5-carboxamide] yielded a melting point of 178 to 181 °C.

Molecule `Cc1nc(N2CCN(CC3CC3)C2=O)sc1C(=O)NCc1ccncn1` [Example 12.10, 2-(3-(cyclopropylmethyl)-2-oxoimidazolidin-1-yl)-4-methyl-N-(pyrimidin-4-ylmethyl)thiazole-5-carboxamide] registered a melting point of 188 to 191 °C.

Molecule `Cc1nc(N2CCN(CC3CC3)C2=O)sc1C(=O)NCc1ncccn1` [Example 12.11, 2-(3-(cyclopropylmethyl)-2-oxoimidazolidin-1-yl)-4-methyl-N-(pyrimidin-2-ylmethyl)thiazole-5-carboxamide] came in with a melting point of 218 to 220 °C.

Turning to `Cc1nc(N2CCN(CC3CC3)C2=O)sc1C(=O)NCc1cccnn1` [Example 12.12, 2-(3-(cyclopropylmethyl)-2-oxoimidazolidin-1-yl)-4-methyl-N-(pyridazin-3-ylmethyl)thiazole-5-carboxamide], the melting point lay in the range of 187 to 189 °C.

In the case of `Cc1nc(N2CCN(CC3CC3)C2=O)sc1C(=O)NCc1ccncc1` [Example 12.13, 2-(3-(cyclopropylmethyl)-2-oxoimidazolidin-1-yl)-4-methyl-N-(pyridin-4-ylmethyl)thiazole-5-carboxamide], the melting point is over 200 °C.

Turning to `Cc1ncc(CNC(=O)c2sc(N3CCN(CC4CC4)C3=O)nc2C)s1` [Example 12.14, 2-(3-(cyclopropylmethyl)-2-oxoimidazolidin-1-yl)-4-methyl-N-((2-methylthiazol-5-yl)methyl)thiazole-5-carboxamide], the melting point fell in the range of 165 to 167 °C.

Take `Cc1nc(N2CCN(CC3CC3)C2=O)sc1C(=O)NCc1ncco1` [Example 12.15, 2-(3-(cyclopropylmethyl)-2-oxoimidazolidin-1-yl)-4-methyl-N-(oxazol-2-ylmethyl)thiazole-5-carboxamide]: the melting point fell in the range of 172 to 174 °C.

The molecule `Cc1nc(N2CCN(Cc3ccc(F)cc3)C2=O)sc1C(=O)NCc1cocn1` [Example 12.16, 2-(3-(4-fluorobenzyl)-2-oxoimidazolidin-1-yl)-4-methyl-N-(oxazol-4-ylmethyl)thiazole-5-carboxamide] registered a melting point of 188 to 191 °C.

Regarding `Cc1nc(N2CCN(CC(C)C)C2=O)sc1C(=O)NCc1ccncc1` [Example 12.17, 2-(3-isobutyl-2-oxoimidazolidin-1-yl)-4-methyl-N-(pyridin-4-ylmethyl)thiazole-5-carboxamide], the melting point lay within 185 to 187 °C.

For the molecule `Cc1cncc(CNC(=O)c2sc(N3CCN(CC(C)C)C3=O)nc2C)n1` [Example 12.20, 2-(3-isobutyl-2-oxoimidazolidin-1-yl)-4-methyl-N-((6-methylpyrazin-2-yl)methyl)thiazole-5-carboxamide], the melting point fell in the range of 139 to 142 °C.

The molecule `Cc1nc(N2CCN(CC(C)C)C2=O)sc1C(=O)NCc1cnn(C)c1` [Example 12.21, 2-(3-isobutyl-2-oxoimidazolidin-1-yl)-4-methyl-N-((1-methyl-1H-pyrazol-4-yl)methyl)thiazole-5-carboxamide] displayed a melting point of 155 to 158 °C.

`Cc1nc(N2CCN(CC(C)C)C2=O)sc1C(=O)NCc1ccn(C)n1` [Example 12.22, 2-(3-isobutyl-2-oxoimidazolidin-1-yl)-4-methyl-N-((1-methyl-1H-pyrazol-3-yl)methyl)thiazole-5-carboxamide] showed a melting point of 158 to 161 °C.

`Cc1nc(-n2cnn(CCC3CC3)c2=O)sc1C(=O)NCc1cccnc1` [Example 13, 2-(1-(2-cyclopropylethyl)-5-oxo-1H-1,2,4-triazol-4(5H)-yl)-4-methyl-N-(pyridin-3-ylmethyl)thiazole-5-carboxamide]: the melting point is 139 to 140 °C.

For the molecule `Cc1nc(-n2cnn(CC3CC3)c2=O)sc1C(=O)NCc1ccncc1` [Example 14, 2-(1-(cyclopropylmethyl)-5-oxo-1H-1,2,4-triazol-4(5H)-yl)-4-methyl-N-(pyridin-4-ylmethyl)thiazole-5-carboxamide], the melting point was in the range of 169 to 170 °C.

Consider `Cc1nc(-n2cnn(CC3CC3)c2=O)sc1C(=O)NCc1cc[nH]n1` [Example 14.1, N-((1H-pyrazol-3-yl)methyl)-2-(1-(cyclopropylmethyl)-5-oxo-1H-1,2,4-triazol-4(5H)-yl)-4-methylthiazole-5-carboxamide], for which the melting point lay in the range of 167 to 168 °C.

In turn, `Cc1nc(-n2cnn(CC3CC3)c2=O)sc1C(=O)NCc1cocn1` [Example 14.2, 2-(1-(cyclopropylmethyl)-5-oxo-1H-1,2,4-triazol-4(5H)-yl)-4-methyl-N-(oxazol-4-ylmethyl)thiazole-5-carboxamide] gave a melting point of 157 to 158 °C.

Take `Cc1nc(-n2cnn(CC3CC3)c2=O)sc1C(=O)NCc1ccccn1` [Example 14.3, 2-(1-(Cyclopropylmethyl)-5-oxo-1H-1,2,4-triazol-4(5H)-yl)-4-methyl-N-(pyridin-2-ylmethyl)thiazole-5-carboxamide]: the melting point is 160 to 161 °C.

Molecule `Cc1nc(-n2cnn(CC3CC3(F)F)c2=O)sc1C(=O)NCc1cccnc1` (centres unmarked) [Example 15, 2-(1-((2,2-difluorocyclopropyl)methyl)-5-oxo-1H-1,2,4-triazol-4(5H)-yl)-4-methyl-N-(pyridin-3-ylmethyl)thiazole-5-carboxamide] came in with a melting point of 160 to 161 °C.

`Cc1nc(N2CCN(CC3CC3(F)F)C2=O)sc1C(=O)NCc1cccnc1` (centres unmarked) [Example 16, 2-(3-((2,2-difluorocyclopropyl)methyl)-2-oxoimidazolidin-1-yl)-4-methyl-N-(pyridin-3-ylmethyl)thiazole-5-carboxamide] came in with a melting point of 169 to 171 °C.

In turn, `Cc1nc(N2CCN(CC3CC3(F)F)C2=O)sc1C(=O)NCc1ncco1` (centres unmarked) [Example 16.1, 2-(3-((2,2-difluorocyclopropyl)methyl)-2-oxoimidazolidin-1-yl)-4-methyl-N-(oxazol-2-ylmethyl)thiazole-5-carboxamide] displayed a melting point of 156 to 158 °C.

`Cc1nc(N2CCN(CC3CC3(F)F)C2=O)sc1C(=O)NCc1cncs1` (centres unmarked) [Example 16.2, 2-(3-((2,2-difluorocyclopropyl)methyl)-2-oxoimidazolidin-1-yl)-4-methyl-N-(thiazol-5-ylmethyl)thiazole-5-carboxamide] came in with a melting point of 182 to 184 °C.

`Cc1csc(CNC(=O)c2sc(N3CCN(CC4CC4(F)F)C3=O)nc2C)n1` (centres unmarked) [Example 16.3, 2-(3-((2,2-difluorocyclopropyl)methyl)-2-oxoimidazolidin-1-yl)-4-methyl-N-((4-methylthiazol-2-yl)methyl)thiazole-5-carboxamide] displayed a melting point of 157 to 159 °C.

The molecule `Cc1nc(N2CCN(Cc3ccc(F)cc3)C2=O)sc1C(=O)NCc1csc(C(C)C)n1` [Example 16.4, 2-(3-(4-fluorobenzyl)-2-oxoimidazolidin-1-yl)-N-((2-isopropylthiazol-4-yl)methyl)-4-methylthiazole-5-carboxamide] returned a melting point of 170 to 172 °C.

Take `Cc1nc(-n2cnn(Cc3ccc(F)cc3)c2=O)sc1C(=O)NCc1cccc(N(C)C)c1` [Example 16.5, N-(3-(dimethylamino)benzyl)-2-(1-(4-fluorobenzyl)-5-oxo-1H-1,2,4-triazol-4(5H)-yl)-4-methylthiazole-5-carboxamide]: the melting point was 149 to 151 °C.

Take `Cc1nc(-n2cnn(CC3CC3(F)F)c2=O)sc1C(N)=O` (centres unmarked) [Example 16.6, 2-(1-((2,2-difluorocyclopropyl)methyl)-5-oxo-1H-1,2,4-triazol-4(5H)-yl)-4-methylthiazole-5-carboxamide]: the melting point was 273 to 275 °C.

The molecule `Cc1nc(-n2cnn(Cc3ccc(F)cc3)c2=O)sc1C(=O)NCc1csc(C(C)C)n1` [Example 16.7] yielded a melting point of 151 to 153 °C.

The molecule `Cc1nc(N2CCN(CC3CC3(F)F)C2=O)sc1-c1cc[nH]n1` (centres unmarked) [Example 17, 1-((2,2-difluorocyclopropyl)methyl)-3-(4-methyl-5-(1H-pyrazol-3-yl)thiazol-2-yl)imidazolidin-2-one] displayed a melting point of 227 to 230 °C.

In the case of `Cc1nc(N2CCN(CCCC(F)(F)F)C2=O)sc1-c1cc[nH]n1` [Example 17.1, 1-(4-methyl-5-(1H-pyrazol-3-yl)thiazol-2-yl)-3-(4,4,4-trifluorobutyl)imidazolidin-2-one], the melting point was 185 to 186 °C.

Molecule `Cc1nc(-n2cnn(Cc3ccc(F)cc3)c2=O)sc1-c1nn[nH]n1` [Example 18, 1-(4-fluorobenzyl)-4-(4-methyl-5-(2H-tetrazol-5-yl)thiazol-2-yl)-1H-1,2,4-triazol-5(4H)-one] gave a melting point of 136 to 139 °C.

Take `Cc1nc(N2CCN(Cc3ccc(F)cc3)C2=O)sc1-c1nn[nH]n1` [Example 18.1, 1-(4-fluorobenzyl)-3-(4-methyl-5-(2H-tetrazol-5-yl)thiazol-2-yl)imidazolidin-2-one]: the melting point was in the range of 145 to 149 °C.

The record behind these values is patent US8318949B2, “Organic compounds” (Novartis AG, priority 2008, dated 2012).
